Consider 2 molecules from patent publication US12156871B2, “Substituted azacycles as muscarinic M1 receptor positive allosteric modulators” (SUVEN LIFE SCIENCES LIMITED, priority 2017, dated 2024).

The nature of data set [1]: Rodent brain penetration study. The class given is in vivo, Male Wistar rats. Particulars: male, Wistar, brain/plasma, po; rat, 3 mg/kg, p.o. @ 1.0 hr; read-out: Single dose Rat Brain Penetration (Cb/Cp). The method, then:
Male Wistar rats (260±40 grams) were used as experimental animals. Three animals were housed in each cage. Animals were given water and food ad libitum throughout the experiment and maintained on a 12 h light/dark cycle.
Brain penetration was determined in discrete manner in rats. One day prior to dosing day, male Wistar rats were acclimatized and randomly grouped according to their weight. At each time point (0.5, 1 and 2 h) n=3 animals were used.
The test compounds were suitably preformulated and administered orally at (free base equivalent) 3 mg/kg. Blood samples were removed via cardiac puncture by using isoflurane anesthesia. The animals were sacrificed to collect brain tissue. Plasma was separated and brain samples were homogenized and stored frozen at −20° C. until analysis. The concentrations of the test compounds in plasma and brain were determined using LC-MS/MS method.
The test compounds were quantified in plasma and brain homogenate by qualified LC-MS/MS method using suitable extraction technique. The test compounds were quantified in the calibration range of 1-500 ng/mL in plasma and brain homogenate. Study samples were analyzed using calibration samples in the batch and quality control samples spread across the batch.

Data set [2] can be described thus: Object recognition task model. The note with it: rat, 3 mg/kg, p.o.; for Exploration time mean ± S.E.M, Familiar object / Exploration time mean ± S.E.M, Novel object: choice trial 24 h after T1. The data set is classed as in vivo, Male Wistar rats. The method, then:
The cognition enhancing properties of compounds of this invention were estimated by using this model.
Male Wistar rats (8-10 weeks old) were used as experimental animals. Four animals were housed in each cage. Animals were kept on 20% food deprivation from a day prior to experimentation. Water was provided ad libitum throughout the experiment. Animals were maintained on a 12 h light/dark cycle in temperature and humidity controlled room. The experiment was carried out in an circular made up of acrylic. Rats were habituated to individual arenas for up to 1 h in the absence of any objects on day 1.
One group of 12 rats received vehicle and another set of animals received compound of the formula (I), before the familiar (T1) and choice (T2) trials. During the familiarization phase, (T1), the rats were placed individually in the arena for 3 minutes, in which two identical objects (a1 and a2) were positioned 10 cm from the wall. 24 h after T1, trial for long-term memory test was performed. The same rats were placed in the same arena as they were placed in T1 trial. During the choice phase (T2) rats were allowed to explore the arena for 3 minutes in presence of a copy of familiar object (a3) and one novel object (b). During the T1 and T2 trial, explorations of each object (defined as sniffing, licking, chewing or having moving vibrissae whilst directing the nose towards the object at a distance of less than 1 cm) were recorded using stopwatch. • T1 is the total time spent exploring the familiar objects (a1+a2). • T2 is the total time spent exploring the familiar object and novel object (a3+b).
The object recognition test was performed as described by Ennaceur, A., Delacour, J., 1988, A new one-trial test for neurobiological studies of memory in rats—Behavioural data, Behav. Brain Res., 31, 47-59.

Data set [3] is described as follows: Rodent pharmacokinetic study. The note with it: rat; for AUC(0-t) / clearance / half-life / Cmax: male, Wistar, plasma; for F: oral 3 mg/kg vs i.v. 1 mg/kg. The class given is in vivo, Male Wistar rats. How it is done:
Male Wistar rats (260±50 grams) were used as experimental animals. Animals were housed individually in polypropylene cage. Two days prior to study, male Wistar rats were anesthetized with isoflurane for surgical placement of jugular vein catheter. Rats were randomly divided for oral (3 mg/kg) and intravenous (i.v) (1 mg/kg) dosing (n=3/group) and fasted overnight before oral dosing (p.o.). However, rats allocated to intravenous (i.v.) dosing food and water was provided ad libitum.
At pre-determined point, blood was collected through jugular vein and replenished with an equivalent volume of normal saline. Collected blood was transferred into a labeled eppendorf tube containing 10 μL of heparin as an anticoagulant. Typically blood samples were collected at following time points: 0.08, 0.25, 0.5, 1, 2, 4, 6, 8, and 24 h post dose. Blood was centrifuged at 4000 rpm for 10 minutes. Plasma was separated and stored frozen at −80° C. until analysis. The concentrations of the test compounds were quantified in plasma by qualified LC-MS/MS method using suitable extraction technique. The test compounds were quantified in the calibration range around 1-1000 ng/mL in plasma. Study samples were analyzed using calibration samples in the batch and quality control samples spread across the batch.
Pharmacokinetic parameters Cmax, AUCt, T1/2, clearance and bioavailability (F) were calculated by non-compartmental model using standard non-compartmental model by using Phoenix WinNonlin 6.0.2 or 6.0.3 version Software package and the results are tabulated below.

The nature of data set [4]: Protein binding assay (HT dialysis), human liver microsomes. The note with it: pH 7.4, Human liver microsomes 0.5 mg/mL, Mean ± SEM, n = 3, read-out: Fu Microsomes (converted). The data set is classed as in vitro ADME. The method, then: Unbound fractions of test compounds in plasma, brain homogenate and liver microsomes were determined using high-throughput dialysis (HT dialysis). Briefly, dialysis membranes were soaked in deionized water for 20 minutes and then in deionized water with 30% ethanol for 15 minutes and finally in phosphate buffer until use. Membranes were rinsed in phosphate buffer before assembling. The membranes were layered between teflon bars of dialysis assembly. Stock solutions of test compound/comparative compound were prepared at 10 mM in DMSO, diluted to 1 mM in acetonitrile and further diluted to 100 μM in mixture of water and acetonitrile (1:1 v/v). Human plasma (pool of 3) was prepared from human blood (3 donors) by centrifuging at 4000 rpm for 10 min at 4° C. Rat and dog blood were obtained on the day of the study and centrifuged to obtain plasma. Rat brains were isolated, cleaned and homogenized with 2 volumes of buffer (3 fold dilution). Liver microsomes were prepared at 0.5 mg/mL in phosphate buffer (100 mM, pH 7.4). The dialysate chambers were loaded with 150 μL of 100 mM phosphate buffer (pH 7.4) in triplicates. The matrix chambers were loaded with 150 μL of the plasma or brain homogenate or microsomal suspension spiked with test compound/comparative compound at a final concentration of 1 μM. 50 μL of the sample was removed from both the chambers at 0 h. The plate was sealed and incubated at 37° C. for 6 h at 100 rpm. After 6 h, 50 μL of the sample was removed from both the chambers. Equal volumes of buffer or human plasma/microsomal suspension were added to the plasma/microsomal and buffer samples respectively to create identical sample matrices for analysis. The samples were precipitated with 150 μL of acetonitrile containing fluoxetine as an internal standard. All the samples were centrifuged at 10000 rpm for 10 minutes at 4° C.
Background: Liver microsomes are a subcellular fraction often used to study metabolism.

The AUC(0-t) is the area under the concentration-time curve up to a stated or last time point. Read a high AUC(0-t) as high exposure. What is called clearance is the volume of plasma or blood freed of the substance per unit of time. Low values mean inefficient removal, high ones efficient removal. The half-life is the time in which the quantity being followed falls by half. Low readings indicate fast loss, high ones slow loss. Usually Cmax stands for the highest concentration seen after dosing. With `COc1ccc(Cc2cc3c(nc2C)CN([C@H]2CCCC[C@@H]2O)C3=O)cc1` [Example 6, 6-(1S,2S-2-Hydroxycyclohexyl)-2-methyl-3-(4-methoxybenzyl)-6,7-dihydropyrrolo[3,4-b]pyridin-5-one], in data set [1], the Kp at 1 h is 0.35 ± 0.08. In data set [2], the Inference entry is “Active”; the “Exploration time mean ± S.E.M, Familiar object” value is 7.27 ± 1.31 s; the “Exploration time mean ± S.E.M, Novel object” value turned out to be 15.9 ± 2.47 s. In data set [3] (iv, i.v. 1 mg/kg), this molecule gave an AUC(0-t) of 1750 ± 312 ng·h/mL, a clearance of 9.3 ± 2 mL/min/kg and a half-life of 114 ± 30 min. Moreover, in data set [3] (oral 3 mg/kg), the AUC(0-t) came to 3520 ng·h/mL, the highest concentration (Cmax) was 1470 ± 26.5 ng/mL and the half-life is 78 ± 6 min. This molecule also displayed a F in data set [3] of 67 ± 5%. Moreover, the fraction unbound at 6 h, 1 μM in data set [4] is 0.938.

In the case of `COc1cccc(Cc2cc3c(nc2C)CN([C@H]2CCCC[C@@H]2O)C3=O)c1` [Example 38, 6-(1S,2S-2-Hydroxycyclohexyl)-2-methyl-3-(3-methoxybenzyl)-6,7-dihydropyrrolo[3,4-b]pyridin-5-one], the Kp at 1 h in data set [1] came out at 0.45 ± 0.13. Besides, in data set [2], the Inference entry was “Active”; the “Exploration time mean ± S.E.M, Familiar object” value stood at 10.12 ± 2.12 s; the “Exploration time mean ± S.E.M, Novel object” value stood at 19.89 ± 3.32 s. In data set [3] (iv, i.v. 1 mg/kg), this molecule showed an area under the curve AUC(0-t) of 662 ± 33 ng·h/mL, a clearance of 25.1 ± 1.2 mL/min/kg and a half-life of 30 min. In data set [3] (oral 3 mg/kg), this molecule had an area under the curve AUC(0-t) of 1010 ng·h/mL, a Cmax of 861 ± 168 ng/mL and a half-life of 36 ± 6 min. Besides, in data set [3], the F is reported as 51 ± 17%. Besides, the fraction unbound at 6 h, 1 μM in data set [4] was 0.87.
